A short description of experiment [1]: Compound was tested for inhibition against tissue factor.
A further experiment has as its target Serine protease 1 (Homo sapiens, UniProt P07477). Description: Inhibition of trypsin.
In the next experiment the target is Coagulation factor X (Homo sapiens, UniProt P00742). Description: Inhibition against human coagulation factor Xa.
The next experiment concerns the target T1, Coagulation factor VII (Homo sapiens, UniProt P08709).
T1 sequence (P08709 whole entry): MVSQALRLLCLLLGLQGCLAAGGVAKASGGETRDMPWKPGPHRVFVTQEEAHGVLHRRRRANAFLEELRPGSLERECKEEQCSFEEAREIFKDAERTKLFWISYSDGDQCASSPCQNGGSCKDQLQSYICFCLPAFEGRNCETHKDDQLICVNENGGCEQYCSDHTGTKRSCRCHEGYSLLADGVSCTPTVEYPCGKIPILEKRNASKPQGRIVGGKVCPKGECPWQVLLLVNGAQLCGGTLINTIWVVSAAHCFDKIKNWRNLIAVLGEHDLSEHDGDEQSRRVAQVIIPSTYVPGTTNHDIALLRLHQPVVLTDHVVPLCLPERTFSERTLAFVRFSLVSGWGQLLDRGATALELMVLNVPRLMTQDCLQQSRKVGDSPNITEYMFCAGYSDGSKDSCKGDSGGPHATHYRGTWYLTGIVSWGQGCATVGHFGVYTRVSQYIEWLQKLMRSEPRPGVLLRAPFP
Description: Inhibition against human Coagulation factor VII.

The target in experiment [2] is T2, Prothrombin (Homo sapiens, UniProt P00734). Description: Inhibition against human thrombin.
Experiment [3] is described as follows: (§1) Concentration necessary to double the time required for clot formation induced by the addition of 4 NIH u/mL (final concentration) bovine thrombin. In kind it is functional.
Experiment [4] addresses T2, Prothrombin. Description: Concentration necessary to double the time required for clot formation induced by the addition of 4 NIH u/mL(final concentration) bovine thrombin. It is filed as functional.
The nature of experiment [5]: Compound was tested for inhibition against Coagulation factor I.
In experiment [6] the target is T2, Prothrombin. The description is as §1. It is filed as functional.

Drawing on ChEMBL document CHEMBL1130774, “Pyrazoles, 1,2,4-triazoles, and tetrazoles as surrogates for cis-amide bonds in boronate ester thrombin inhibitors” (Bioorg Med Chem Lett, 1998), this text covers Ki for 31 compounds.

pKi: −log10 of the molar value.

Broadly, the pKi is the Ki on a negative log10 scale, so that one unit is a factor of ten.

Sequence of Coagulation factor X (P00742 41-179 limits assumed): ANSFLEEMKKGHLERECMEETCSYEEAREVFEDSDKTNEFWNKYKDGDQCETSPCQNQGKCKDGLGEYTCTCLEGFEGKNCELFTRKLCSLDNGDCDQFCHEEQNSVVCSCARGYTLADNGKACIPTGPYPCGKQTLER
Sequence of Coagulation factor X (P00742 235-488 limits assumed): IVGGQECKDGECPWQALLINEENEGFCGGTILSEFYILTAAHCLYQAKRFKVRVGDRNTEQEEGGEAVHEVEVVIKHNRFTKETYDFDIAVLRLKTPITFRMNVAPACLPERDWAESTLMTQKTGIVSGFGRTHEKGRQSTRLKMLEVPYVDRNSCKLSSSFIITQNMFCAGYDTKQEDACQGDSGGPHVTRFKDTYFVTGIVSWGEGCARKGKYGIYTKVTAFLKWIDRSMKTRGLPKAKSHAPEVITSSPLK
Sequence of Serine protease 1 (P07477 whole entry): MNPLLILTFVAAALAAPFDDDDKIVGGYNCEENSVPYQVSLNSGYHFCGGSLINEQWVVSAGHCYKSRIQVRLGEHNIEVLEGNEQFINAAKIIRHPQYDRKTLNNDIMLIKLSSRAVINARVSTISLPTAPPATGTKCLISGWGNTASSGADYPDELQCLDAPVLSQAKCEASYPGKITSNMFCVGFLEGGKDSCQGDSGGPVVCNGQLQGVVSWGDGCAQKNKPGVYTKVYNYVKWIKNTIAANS

As for `CC1(C)[C@@H]2C[C@H]3OB([C@H](CCCCN)NC(=O)Cn4nc(CNS(=O)(=O)C(F)(F)F)nc4Cc4ccccc4)O[C@@]3(C)[C@H]1C2`, the negative logarithm of the Ki (pKi) in experiment [1] is 5.43; at Serine protease 1, under 5.92; on Coagulation factor X, under 5.22; on Coagulation factor VII, under 5.52; on Prothrombin [2] it was 6.68.
In the case of `CC1(C)[C@@H]2C[C@H]3OB([C@H](CCCCN)NC(=O)Cn4nc(CO)nc4Cc4ccccc4)O[C@@]3(C)[C@H]1C2`, the pKi at Coagulation factor X is under 5.22; on Coagulation factor VII it was 5.11; on Prothrombin [2] it was 7.08.
Regarding `CC1(C)[C@@H]2C[C@H]3OB([C@H](CCCCN)NC(=O)Cn4ncnc4Cc4ccccc4)O[C@@]3(C)[C@H]1C2`, the pKi in [3] was 5.60; at Prothrombin [2] it was 7.51.
At Prothrombin [2], `CC1(C)[C@@H]2C[C@H]3OB([C@H](CCCCN)NC(=O)Cn4nc(-c5ccccc5)nc4Cc4ccccc4)O[C@@]3(C)[C@H]1C2` gave a pKi of 6.76.
For `CC1(C)[C@@H]2C[C@H]3OB([C@H](CCCCN)NC(=O)Cn4nc(COCc5ccccc5)nc4Cc4ccccc4)O[C@@]3(C)[C@H]1C2`, the pKi was 5.89 at Prothrombin [4], 5.80 on Coagulation factor X, 5.82 on Coagulation factor VII and 8.06 on Prothrombin [2].
Regarding `CC(C)(C)OC(=O)/C=C/c1nc(Cc2ccccc2)n(CC(=O)N[C@@H](CCCCN)B2O[C@@H]3C[C@@H]4C[C@@H](C4(C)C)[C@]3(C)O2)n1`, the pKi in [1] was 5.55; at Serine protease 1, 7.44; at Coagulation factor X it was under 5.22; at Coagulation factor VII, 5.57; on Prothrombin [2], 6.82.
For the compound `CC(C)C(=O)NCc1nc(Cc2ccccc2)n(CC(=O)N[C@@H](CCCCN)B2O[C@@H]3C[C@@H]4C[C@@H](C4(C)C)[C@]3(C)O2)n1`, the pKi at Serine protease 1 is 8.02; at Coagulation factor X, under 5.22; on Coagulation factor VII, under 5.52; at Prothrombin [2] it was 6.80.
`CC1(C)[C@@H]2C[C@H]3OB([C@H](CCCCN)NC(=O)Cn4nc(-c5cccc([N+](=O)[O-])c5)nc4Cc4ccccc4)O[C@@]3(C)[C@H]1C2`: the pKi was 5.38 at Coagulation factor X, 5.59 at Coagulation factor VII and 7.07 at Prothrombin [2].
For `CC1(C)[C@@H]2C[C@H]3OB([C@H](CCCCN)NC(=O)Cn4nc(-c5cccc(N)c5)nc4Cc4ccccc4)O[C@@]3(C)[C@H]1C2`, the pKi at Serine protease 1 is 8.38; at Coagulation factor X, under 5.22; on Coagulation factor VII it was 5.85; on Prothrombin [2] it was 6.82.
In the case of `Cc1nc(Cc2ccccc2)n(CC(=O)N[C@@H](CCCCN)B2O[C@@H]3C[C@@H]4C[C@@H](C4(C)C)[C@]3(C)O2)n1`, the pKi at Prothrombin [4] is 5.22; at Coagulation factor X, under 5.22; at Coagulation factor VII it was 5.15; at Prothrombin [2], 8.07.
For the compound `CSCc1nc(Cc2ccccc2)n(CC(=O)N[C@@H](CCCCN)B2O[C@@H]3C[C@@H]4C[C@@H](C4(C)C)[C@]3(C)O2)n1`, the pKi on Serine protease 1 is 8.72; on Prothrombin [4] it was 5.35; on Coagulation factor X, under 5.22; on Coagulation factor VII, 5.60; at Prothrombin [2], 7.19.
Consider `CC1(C)[C@@H]2C[C@H]3OB([C@H](CCCCN)NC(=O)Cn4nc(CC#N)cc4CCc4ccccc4)O[C@@]3(C)[C@H]1C2`, for which the pKi was 4.89 in experiment [5], 7.46 on Serine protease 1, under 5.22 on Coagulation factor X and 8.34 on Prothrombin [2].
Take `CC1(C)[C@@H]2C[C@H]3OB([C@H](CCCCN)NC(=O)Cn4nc(Cc5nn[nH]n5)nc4Cc4ccccc4)O[C@@]3(C)[C@H]1C2`: the pKi on Prothrombin [2] is 6.46.
On to `CC(C)(C)OC(=O)CCc1nc(Cc2ccccc2)n(CC(=O)N[C@@H](CCCCN)B2O[C@@H]3C[C@@H]4C[C@@H](C4(C)C)[C@]3(C)O2)n1`, for which the pKi was 6.17 in experiment [1]; 8.85 on Serine protease 1; 6.12 on Coagulation factor X; under 5.52 on Coagulation factor VII; 8.26 at Prothrombin [2].
Consider `CC1(C)[C@@H]2C[C@H]3OB([C@H](CCCCN)NC(=O)Cn4nc(CS(C)(=O)=O)nc4Cc4ccccc4)O[C@@]3(C)[C@H]1C2`, for which the pKi in [1] is 5.57; at Serine protease 1, 8.68; at Coagulation factor X, under 5.22; on Coagulation factor VII, 5.72; on Prothrombin [2] it was 7.96.
Consider `CC1(C)[C@@H]2C[C@H]3OB([C@H](CCCCN)NC(=O)Cn4nnnc4CCc4ccccc4)O[C@@]3(C)[C@H]1C2`, for which the pKi on Prothrombin [2] is 7.48.
As for `CC1(C)[C@@H]2C[C@H]3OB([C@H](CCCCN)NC(=O)Cn4nc(CCC(=O)O)nc4Cc4ccccc4)O[C@@]3(C)[C@H]1C2`, the pKi is under 5.00 in experiment [1]; 8.15 at Serine protease 1; under 5.22 on Coagulation factor X; under 5.52 at Coagulation factor VII; 6.64 at Prothrombin [2].
Consider `CC1(C)[C@@H]2C[C@H]3OB([C@H](CCCCN)NC(=O)Cn4nc(Cc5ccccc5)nc4Cc4ccccc4)O[C@@]3(C)[C@H]1C2`, for which the negative logarithm of the Ki (pKi) at Coagulation factor X is under 5.22; on Coagulation factor VII, 5.40; on Prothrombin [2] it was 7.39.
Regarding `CCCc1nc(Cc2ccccc2)n(CC(=O)N[C@@H](CCCCN)B2O[C@@H]3C[C@@H]4C[C@@H](C4(C)C)[C@]3(C)O2)n1`, the pKi was 8.64 at Serine protease 1, under 5.22 at Coagulation factor X, 5.62 at Coagulation factor VII and 7.14 at Prothrombin [2].
Turning to `CC1(C)[C@@H]2C[C@H]3OB([C@H](CCCCN)NC(=O)Cn4nc(CC#N)nc4Cc4cccc([N+](=O)[O-])c4)O[C@@]3(C)[C@H]1C2`, the pKi was 5.72 in experiment [5]; 7.64 on Serine protease 1; under 5.22 on Coagulation factor X; under 5.52 at Coagulation factor VII; 8.74 on Prothrombin [2].
Consider `CC1(C)[C@@H]2C[C@H]3OB([C@H](CCCCN)NC(=O)Cn4nc(CC(=O)O)nc4Cc4ccccc4)O[C@@]3(C)[C@H]1C2`, for which the results for the negative logarithm of the Ki (pKi) at Coagulation factor X, on Coagulation factor VII and on Prothrombin [2] were under 5.22, under 4.85 and 5.77, respectively.
With `CC1(C)[C@@H]2C[C@H]3OB([C@H](CCCCN)NC(=O)Cn4nc(CC#N)nc4Cc4ccccc4[N+](=O)[O-])O[C@@]3(C)[C@H]1C2`, the negative-log Ki (pKi) in [5] is 5.70; at Serine protease 1, 8.08; on Coagulation factor X, 5.31; at Coagulation factor VII it was 5.52; on Prothrombin [2] it was 9.10.
As to `CC1(C)[C@@H]2C[C@H]3OB([C@H](CCCCN)NC(=O)Cn4nc(CC#N)nc4CCc4ccccc4)O[C@@]3(C)[C@H]1C2`, the pKi in [5] was 5.17; at Serine protease 1, 7.92; on Coagulation factor X, under 5.22; on Coagulation factor VII, under 5.52; on Prothrombin [2], 8.59.
Take `CC(C)(C)CC(=O)NCc1nc(Cc2ccccc2)n(CC(=O)N[C@@H](CCCCN)B2O[C@@H]3C[C@@H]4C[C@@H](C4(C)C)[C@]3(C)O2)n1`: the pKi in [1] is 5.83; on Serine protease 1, 8.57; on Coagulation factor X, 5.37; at Coagulation factor VII, under 5.52; at Prothrombin [2] it was 7.48.
`C[S+]([O-])Cc1nc(Cc2ccccc2)n(CC(=O)N[C@@H](CCCCN)B2O[C@@H]3C[C@@H]4C[C@@H](C4(C)C)[C@]3(C)O2)n1` (some centres not stated): the negative-log Ki (pKi) in experiment [1] was 5.44; on Serine protease 1 it was 8.32; at Coagulation factor X, 5.22; on Coagulation factor VII it was 5.68; at Prothrombin [2] it was 7.33.
With `CC1(C)[C@@H]2C[C@H]3OB([C@H](CCCCN)NC(=O)Cn4ncnc4CCCc4ccccc4)O[C@@]3(C)[C@H]1C2`, the pKi on Prothrombin [2] was under 7.38.
In the case of `COC(=O)Cc1nc(Cc2ccccc2)n(CC(=O)N[C@@H](CCCCN)B2O[C@@H]3C[C@@H]4C[C@@H](C4(C)C)[C@]3(C)O2)n1`, the values for the pKi on Coagulation factor X, on Coagulation factor VII and on Prothrombin [2] were under 5.22, 4.85 and 7.07, respectively.
Regarding `CC1(C)[C@@H]2C[C@H]3OB([C@H](CCCCN)NC(=O)Cn4ncnc4CCc4ccccc4)O[C@@]3(C)[C@H]1C2`, the pKi at Prothrombin [2] was 7.44.
For `CC1(C)[C@@H]2C[C@H]3OB([C@H](CCCCN)NC(=O)Cn4nc(CNC=O)nc4Cc4ccccc4)O[C@@]3(C)[C@H]1C2`, the negative-log Ki (pKi) was 5.57 in experiment [1]; 8.18 at Serine protease 1; under 5.22 at Coagulation factor X; 5.66 at Coagulation factor VII; 7.48 on Prothrombin [2].
In the case of `CC1(C)[C@@H]2C[C@H]3OB([C@H](CCCCN)NC(=O)Cn4nc(CC#N)nc4Cc4ccccc4)O[C@@]3(C)[C@H]1C2`, the pKi is 8.25 on Serine protease 1; under 5.22 at Coagulation factor X; 6.30 at Prothrombin [6]; 5.38 at Coagulation factor VII; 8.46 on Prothrombin [2].
Take `CN(CC(=O)N[C@@H](CCCSC(=N)N)B(O)O)C(=O)CCc1ccccc1`: at Prothrombin [2], the pKi is 9.52.
